Measurements taken from patent US12364667B2, “Anti-tumor platinum-based drug mineralized protein nanoparticle, preparation method therefor and use thereof” (SOOCHOW UNIVERSITY, priority 2019, dated 2025).

Key:
HepG-2 cell line = experiment: MTT cytotoxicity on HepG-2 cell line; format: cell-based, human; settings: 24 hours
Protocol: Placing the plate in a cell incubator for 12 hours at constant temperature. […] After 24 hours in the incubator, replace the culture medium, add 10 μL of MTT (3-(4,5-dimethylthiazol-2-yl)-2,5-diphenyltetrazolium bromide) PBS (phosphate-buffered saline) solution with a concentration of 5 mg/mL, discard the culture medium after 4 hours, add 200 μL of DMSO (dimethylsulfoxide), shake for 10 minutes, measure the absorbance value at 490 nm with a microplate reader.

A549 tumor model = experiment: Anti-tumor effect, A549 subcutaneous tumor model; format: in vivo
A549/DDP tumor model = experiment: Anti-tumor effect, A549/DDP subcutaneous tumor model; format: in vivo, nude mice; settings: platinum 1 mg/kg once every 5 days, 25 days
[1] = Serum ALT, AST, ALP and urea nitrogen after treatment; format: in vivo, Balb/c mice; settings: 7 days after complete injection; tail vein, once every 5 days, 5 administrations
Protocol: 12. […] Each mouse was administered via the tail vein (1 mg/mL, once every 5 days). After a total of 5 administrations for 25 days, each mouse was taken by eyeball blood sampling at 7, 14, 21, and 28 days after administration. A 0.5 mL blood sample from a mouse was placed overnight at 4° C. and centrifuged at 1000 rpm for 5 min. The upper clarified serum 200 μL was taken out to measure the alanine aminotransferase (ALT), aspartate aminotransferase (AST), alkaline phosphatase (ALP) and urea nitrogen (Urea) contents.

SMILES: N.N.[Cl][Pt][Cl] [cisplatin]
- IC50 for HepG-2 cell line (HepG-2 cell line): 12.6 mg/L
- effect on tumor growth (A549 tumor model; A549 tumor model, platinum 1 mg/kg once every 5 days, 25 days): a certain tumor-inhibiting effect
- condition of the nude mice during the observation period (A549 tumor model; mouse, in vivo): in poor condition and lost weight
- effect on tumor growth (A549/DDP tumor model): a certain tumor-inhibiting effect
- serum urea nitrogen content versus control group [1]: significantly different from that of the control group
